Source: patent US20070219193A1, “ALKYLAMINE-SUBSTITUTED BICYCLIC ARYL COMPOUNDS USEFUL AS MODULATORS OF PPAR” (KALYPSYS, INC, priority 2006, published 2007)
pEC50: −log10 of the molar value.

Tests used:
Type in all cases: cell-based
PPAR delta = target: T1, PPAR delta (Homo sapiens, UniProt Q03181); assay: Full-length PPAR transcriptional activation assay (PPRE::Luciferase reporter, HEK293 cells), PPAR delta; settings: transfected HEK293 cells, species of receptor not given
T1 construct: expressed in transfected cells; host or cells: HEK293
T1 sequence (Q03181 1-441): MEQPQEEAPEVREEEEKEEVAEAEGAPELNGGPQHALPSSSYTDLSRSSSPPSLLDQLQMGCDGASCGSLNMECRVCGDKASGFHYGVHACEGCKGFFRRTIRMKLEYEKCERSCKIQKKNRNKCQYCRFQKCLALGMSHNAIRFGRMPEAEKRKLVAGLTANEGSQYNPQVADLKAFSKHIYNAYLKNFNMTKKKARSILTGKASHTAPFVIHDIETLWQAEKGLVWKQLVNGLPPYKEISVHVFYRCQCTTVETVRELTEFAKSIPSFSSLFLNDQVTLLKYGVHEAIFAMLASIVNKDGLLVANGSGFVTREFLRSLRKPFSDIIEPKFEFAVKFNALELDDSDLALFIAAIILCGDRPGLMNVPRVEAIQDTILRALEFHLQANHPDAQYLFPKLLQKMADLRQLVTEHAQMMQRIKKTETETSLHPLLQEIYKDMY
Protocol: (§1) HEK293 cells were seeded the day before transfection into 384-well plates at a cell density of 6,000 cells per well in 40 μl assay medium I (phenol red-free DMEM containing 4% charcoal-dextran stripped FBS, 1% Penicillin-Streptomycin and 1% GlutaMax-1). Then 25 ng of PPRE::Luciferase reporter plasmid, an expression plasmid (25 pg of PPARα, or 40 pg of PPARδ, or 75 pg of PPARγ2), and an appropriate amount of the plasmid pUC19 to bring the total DNA amount to 50 ng was added to 20 μl of phenol-red free DMEM and 150 nL of Fugene 6 and incubated for 30 minutes. The transfection mixtures were then added to the cells and incubated for three hours. 10 μl of test agents in 5% DMSO were then added to the cells and incubated at 37° C. for an additional 18 hours. Luciferase activity was then assayed by adding 25 μl/well of Britelite (Perkin Elmer) according to the manufacturer's protocol and relative light output was measured with an Analyst GT plate reader (Molecular Devices). All experimental points were done in triplicate and the assays were repeated at least 3 times.
(§2) HEK293 cells were seeded the day before transfection in […] dishes at a density of 9×10^6 cells/dish and incubated at 37° C., 10% CO2 for 16-24 hours. Then, […] of PPRE::Luciferase reporter plasmid, an expression plasmid (7.5 ng of PPARα, or 7.5 ng of PPARδ, or 75 ng of PPARγ2), and an appropriate amount of the plasmid pUC19 to bring the total DNA amount to […] were mixed with 54 μl of Fugene 6 in 2 mls of phenol red-free DMEM and incubated for 30 minutes. Transfection mixtures were then incubated with the cells for 18 hours. Cells were then replated into sterile, white TC treated 384-well assay plates at a cell density of 24×10^3 cells/well in 40 μl of assay medium II (phenol-red free DMEM containing 3% charcoal/dextran-stripped FBS, 1% Penicillin-Streptomycin and 1% GlutaMax-1) and incubated at 37° C. for 6 hours. 10 μl of test agents in 5% DMSO were then added to the cells and incubated at 37° C. for an additional 18 hours. Luciferase activity was then assayed by adding 30 μl/well of Britelite (Perkin Elmer) according to the manufacturer's protocol and relative light output was measured with an Analyst GT plate reader (Molecular Devices). All experimental points were done in triplicate and the assays were repeated 3 times.

PPAR gamma = target: T2, PPAR gamma (Homo sapiens, UniProt P37231); assay: Full-length PPAR transcriptional activation assay (PPRE::Luciferase reporter, HEK293 cells), PPAR gamma; settings: transfected HEK293 cells (PPARγ2 plasmid), species of receptor not given
T2 construct: expressed in transfected cells; host or cells: HEK293
T2 sequence (P37231 1-505): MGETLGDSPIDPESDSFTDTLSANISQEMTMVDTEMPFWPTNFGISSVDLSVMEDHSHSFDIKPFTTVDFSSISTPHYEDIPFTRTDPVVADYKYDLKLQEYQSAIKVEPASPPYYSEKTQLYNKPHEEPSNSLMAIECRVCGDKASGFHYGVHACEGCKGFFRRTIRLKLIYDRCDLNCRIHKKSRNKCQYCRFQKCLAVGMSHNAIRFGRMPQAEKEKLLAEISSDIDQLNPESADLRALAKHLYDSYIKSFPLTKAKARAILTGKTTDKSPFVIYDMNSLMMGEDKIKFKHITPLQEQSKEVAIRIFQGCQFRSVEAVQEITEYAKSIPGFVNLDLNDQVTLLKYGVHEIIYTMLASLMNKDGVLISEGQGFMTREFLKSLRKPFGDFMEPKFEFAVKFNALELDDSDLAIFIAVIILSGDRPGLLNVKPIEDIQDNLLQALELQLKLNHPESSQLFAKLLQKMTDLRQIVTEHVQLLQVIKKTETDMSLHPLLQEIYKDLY
Protocol: as §1, §2

PPAR alpha = target: T3, PPAR alpha (Homo sapiens, UniProt Q07869); assay: Full-length PPAR transcriptional activation assay (PPRE::Luciferase reporter, HEK293 cells), PPAR alpha; settings: transfected HEK293 cells, species of receptor not given
T3 construct: expressed in transfected cells; host or cells: HEK293
T3 sequence (Q07869 1-468): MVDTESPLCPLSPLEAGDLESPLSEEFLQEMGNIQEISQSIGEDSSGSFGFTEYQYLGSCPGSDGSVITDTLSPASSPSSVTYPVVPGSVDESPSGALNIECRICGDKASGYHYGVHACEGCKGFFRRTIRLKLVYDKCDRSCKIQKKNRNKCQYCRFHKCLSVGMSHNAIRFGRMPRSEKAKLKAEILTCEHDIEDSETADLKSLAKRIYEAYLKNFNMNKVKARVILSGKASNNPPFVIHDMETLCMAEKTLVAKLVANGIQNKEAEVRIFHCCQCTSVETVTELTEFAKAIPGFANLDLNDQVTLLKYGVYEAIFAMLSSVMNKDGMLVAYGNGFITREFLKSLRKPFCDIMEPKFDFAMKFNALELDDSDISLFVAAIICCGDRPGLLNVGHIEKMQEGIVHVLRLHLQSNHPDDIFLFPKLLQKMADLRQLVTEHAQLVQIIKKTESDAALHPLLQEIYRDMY
Protocol: as §1, §2

| Compound | pEC50 (PPAR delta) | pEC50 (PPAR gamma) | pEC50 (PPAR alpha) |
| --- | --- | --- | --- |
| CCc1cnc(N(CCCC2Oc3cc(CC(=O)O)ccc3CC2C)Cc2ccc(OC(F)(F)F)cc2)nc1 (single isomer, unassigned) [Example 18A, 2-(2-(3-((5-ethylpyrimidin-2-yl)(4-(trifluoromethoxy)benzyl)amino)propyl)-3-methylchroman-7-yl)acetic acid] | ≥ 6.00 | ≥ 6.00 | < 6.00 |
| CCc1cnc(N(CCCC2Oc3cc(CC(=O)O)ccc3CC2C)Cc2ccc(OC(F)(F)F)cc2)nc1 (single isomer, unassigned) [Example 18B] | ≥ 6.00 | ≥ 6.00 | ≥ 6.00 |
| CCc1cnc(N(CCCC2Oc3cc(CC(=O)O)ccc3CC2C)Cc2ccc(OC(F)(F)F)cc2)nc1 (single isomer, unassigned) [Example 18C] | ≥ 6.00 | < 6.00 | ≥ 6.00 |
| CCc1cnc(N(CCCN2CCc3ccc(CC(=O)O)cc3C2)Cc2ccc(OC(F)(F)F)cc2)nc1 [Example 1, (2-{3-[(5-Ethyl-pyrimidin-2-yl)-(4-trifluoromethoxy-benzyl)-amino]-propyl}-1,2,3,4-tetrahydro-isoquinolin-7-yl)-acetic acid] | ≥ 6.00 | ≥ 6.00 | < 6.00 |
| CCc1cnc(N(CCCN2CCc3ccc(CC(=O)O)cc3C2)Cc2ccc(C(F)(F)F)cc2C(F)(F)F)nc1 [Example 2, (2-{3-[(2,4-Bis-trifluoromethyl-benzyl)-(5-ethyl-pyrimidin-2-yl)-amino]-propyl}-1,2,3,4-tetrahydro-isoquinolin-7-yl)-acetic acid] | ≥ 6.00 | ≥ 6.00 | < 6.00 |
| CCc1cnc(N(CCN2CCc3ccc(CC(=O)O)cc3C2)Cc2ccc(OC(F)(F)F)cc2)nc1 [Example 3, (2-{2-[(5-Ethyl-pyrimidin-2-yl)-(4-trifluoromethoxy-benzyl)-amino]-ethyl}-1,2,3,4-tetrahydro-isoquinolin-7-yl)-acetic acid] | ≥ 6.00 | ≥ 6.00 | < 6.00 |

Next, values leading:

| pEC50 (PPAR delta) | pEC50 (PPAR gamma) | pEC50 (PPAR alpha) | Compound |
| --- | --- | --- | --- |
| ≥ 6.00 | ≥ 6.00 | < 6.00 | CCc1cnc(N(CCCC2Oc3cc(CC(=O)O)ccc3CC2C)Cc2ccc(OC(F)(F)F)cc2)nc1 (single isomer, unassigned) [Example 18D] |
| ≥ 6.00 | ≥ 6.00 | < 6.00 | CCc1cnc(N(CCCC2Oc3cccc(CC(=O)O)c3CC2C)Cc2ccc(OC(F)(F)F)cc2)nc1 (single isomer, unassigned) [Example 19A, 2-(2-(3-((5-ethylpyrimidin-2-yl)(4-(trifluoromethoxy)benzyl)amino)propyl)-3-methylchroman-5-yl)acetic acid] |
| ≥ 6.00 | ≥ 6.00 | < 6.00 | CCc1cnc(N(CCCC2Oc3cccc(CC(=O)O)c3CC2C)Cc2ccc(OC(F)(F)F)cc2)nc1 (single isomer, unassigned) [Example 19B, 2-(2-(3-((5-ethylpyrimidin-2-yl)(4-(trifluoromethoxy)benzyl)amino)propyl)-3-methylchroman-5-yl)acetic acid] |
| ≥ 6.00 | ≥ 6.00 | < 6.00 | CCc1cnc(N(CCCC2Oc3cccc(CC(=O)O)c3CC2C)Cc2ccc(OC(F)(F)F)cc2)nc1 (single isomer, unassigned) [Example 19C, 2-(2-(3-((5-ethylpyrimidin-2-yl)(4-(trifluoromethoxy)benzyl)amino)propyl)-3-methylchroman-5-yl)acetic acid] |
| ≥ 6.00 | ≥ 6.00 | < 6.00 | CCc1cnc(N(CCCC2Oc3cccc(CC(=O)O)c3CC2C)Cc2ccc(OC(F)(F)F)cc2)nc1 (single isomer, unassigned) [Example 19D, 2-(2-(3-((5-ethylpyrimidin-2-yl)(4-(trifluoromethoxy)benzyl)amino)propyl)-3-methylchroman-5-yl)acetic acid] |
